Source: the supplement of paper PMC7695840
pIC50: −log10 of the molar value. “And” between values parts separate entries of the source, which are not always exact repeats. Equal entries are not always repeated. Structures can show the parent of a compound that is named as a salt.

How the values were obtained:
[1] = system: Staphylococcus aureus MW2 delta-mecA (mecA-); experiment: IC50 (growth, competition assay); conditions: cefoxitin: subinhibitory
Summary of the method: (§1)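 Signals from DsRed (540/590) and GFP (485/520) were scaled on every plate between single-strain control medians, with No Treatment then set to 0.5. The cells were a 1:1 mix of pre-induced fluorescent S. aureus MW2 strains with and without the resistance gene, grown unshaken for 20 h at 37 °C and 90% humidity in LB in 1536-well plates under a subinhibitory drug dose set each day. Each strain's IC50 was defined as the dose halving the No Treatment signal, or the maximal signal.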

[2] = system: Staphylococcus aureus MW2 (mecA+); experiment: IC50 (growth, competition assay); conditions: cefoxitin: subinhibitory
Summary of the method: as §1

| Structure (SMILES) | pIC50 ([1]; fluorescent label: DsRed) | pIC50 ([1]; fluorescent label: GFP) | pIC50 ([2]; fluorescent label: DsRed) | pIC50 ([2]; fluorescent label: GFP) |
| --- | --- | --- | --- | --- |
| CCCCC[C@H](CC(=O)NO)C(=O)N[C@H](C(=O)N1CCC[C@H]1CO)C(C)C [Actinonin] | > 5.01 | > 5.01 | 4.81 | 4.96 |
| C=CC(C1=CC(=O)C(OC)=CC1=O)c1ccccc1 (configuration not stated) [4-METHOXYDALBERGIONE] | > 5.01 | 4.88 | 4.23 | 4.20 |
| C=CC1=C(C(=O)O)N2C(=O)[C@@H](NC(=O)/C(=N\O)c3csc(N)n3)[C@H]2SC1 [OMNICEF] | > 5.01 | > 5.01 | > 5.01 | > 5.01 |
| CN1CCN(CCCN2c3ccccc3Sc3ccc(Cl)cc32)CC1 [COMPAZINE] | 4.47 | 4.25 | 3.86 | 4.25 |
| CC[C@H]1OC(=O)[C@H](C)[C@@H](O[C@H]2C[C@@](C)(OC)[C@@H](O)[C@H](C)O2)[C@H](C)[C@@H](O[C@@H]2O[C@H](C)C[C@H](N(C)C)[C@H]2O)[C@](C)(O)C[C@@H](C)/C(=N\OCOCCOC)[C@H](C)[C@@H](O)[C@]1(C)O [Roxithromycin (Roxl-150)] | > 6.30 | > 6.30 | 5.37 | 5.40 |
| Cc1ncc(-c2ccnc(Nc3ccc(S(C)(=O)=O)cc3)n2)n1C(C)C [AZD5438] | 4.99 | > 5.01 | < 3.82 | < 3.82 |
| CCC[C@H](NC(=O)/C(C#N)=C/c1cccc(Br)n1)c1ccccc1 [WP1130] | 5.64 | 6.04 | 4.86 | 4.56 |
| O=C(O)c1cn(-c2ccc(F)cc2)c2cc(N3CCNCC3)c(F)cc2c1=O [SARAFLOX] | > 5.01 | > 5.01 | > 5.01 | > 5.01 |
| O=C(O)c1ccc(N2C(=O)/C(=C\c3ccc(-c4ccc([N+](=O)[O-])cc4)o3)C=C2c2ccccc2)cc1 [4E1RCat] | 4.74 | > 5.01 | 4.26 | 4.10 |
| O=C(O)c1cn(C2CC2)c2cc(N3CCNCC3)c(F)cc2c1=O [Ciprofloxacin (Cipro)] | 6.06 | 5.93 | 5.45 | 5.45 |
| CCc1cc2c(cc1CC)CC(NC[C@H](O)c1ccc(O)c3[nH]c(=O)ccc13)C2 [Indacaterol Maleate] | 4.27 | 4.49 | 4.15 | 4.04 |
| O=C1[C@H](CC[C@H](O)c2ccc(F)cc2)[C@@H](c2ccc(O)cc2)N1c1ccc(F)cc1 [ZETIA] | 4.59 | 4.61 | 3.99 | 3.98 |
| CC[C@H]1OC(=O)[C@H](C)[C@@H](O[C@H]2C[C@@](C)(OC)[C@@H](O)[C@H](C)O2)[C@H](C)[C@@H](O[C@@H]2O[C@H](C)C[C@H](N(C)C)[C@H]2O)[C@](C)(O)C[C@@H](C)CN(C)[C@H](C)[C@@H](O)[C@]1(C)O [ZITHROMAX] | > 5.01 | > 5.01 | > 5.01 | 4.80 |
| N[C@@H](Cc1cc(I)c(Oc2ccc(O)c(I)c2)c(I)c1)C(=O)O [CYTOMEL] | 4.85 | > 5.01 | 4.22 | 4.31 |
| Cc1cc(C2CCCCC2)n(O)c(=O)c1 [Ciclopirox ethanolamine] | 4.55 and 4.21 | 4.53 and 4.24 | 4.61 and 4.30 | 4.53 and 4.22 |
| O=C1OC(c2ccc(O)cc2)(c2ccc(O)cc2)c2ccccc21 [EXLAX] | 4.30 | 4.23 | 3.95 | 4.28 |
| Cc1coc2c1C(=O)C(=O)c1c-2ccc2c(C)cccc12 [Tanshinone I] | 4.12 | 4.19 | 3.89 | < 3.82 |
| Cc1ccc(C(=O)N(CCCN)[C@@H](c2oc3cc(Cl)ccc3c(=O)c2Cc2ccccc2)C(C)C)cc1 | 5.23 | 5.10 | 4.51 | 4.51 |
| O=S(=O)(c1ccccc1)N(CC(F)(F)F)c1ccc(C(O)(C(F)(F)F)C(F)(F)F)cc1 | > 5.01 | > 5.01 | 4.61 | 4.53 |
| C[C@H]1COc2c(N3CCN(C)CC3)c(F)cc3c(=O)c(C(=O)O)cn1c23 [Levofloxacin (Levaquin)] | > 6.30 | > 6.30 | > 6.30 | > 6.30 |

| Structure (SMILES) | pIC50 ([1]; fluorescent label: DsRed) | pIC50 ([1]; fluorescent label: GFP) | pIC50 ([2]; fluorescent label: DsRed) | pIC50 ([2]; fluorescent label: GFP) |
| --- | --- | --- | --- | --- |
| CC(C)c1cccc(C(C)C)c1N1C(=O)c2ccc(O)cc2C1=O [5HPP-33] | 4.39 | > 5.01 | 4.59 | 3.95 |
| CCn1cc(C(=O)O)c(=O)c2cc(F)c(N3CCNCC3)nc21 [PENETREX] | > 5.01 | > 5.01 | > 5.01 | > 5.01 |
| CCn1cc(C(=O)O)c(=O)c2ccc(C)nc21 [Nalidixic acid (NegGram)] | 4.51 and 4.74 | 4.77 and 4.78 | 4.00 and 4.24 | 3.96 and 4.24 |
| CN(C)CCC=C1c2ccccc2CCc2ccccc21 [ELAVIL] | 4.48 | 4.73 | 3.95 | 3.95 |
| CC=CC1=C(C(=O)O)N2C(=O)[C@@H](NC(=O)[C@H](N)c3ccc(O)cc3)[C@H]2SC1 [CEFZIL] | > 5.01 | > 5.01 | 3.95 | 3.96 |
| N[C@@H]1CONC1=O [SEROMYCIN] | 4.01 | 4.04 | < 3.82 | 3.96 |
| COc1ccc(NC(=O)c2ccc(-c3ccc(-c4noc(C)n4)cc3C)cc2)cc1N1CCN(C)CC1 | > 5.01 | 4.91 | 4.52 | 4.35 |
| CC(C)c1nc(CN(C)C(=O)N[C@@H](CCN2CCOCC2)C(=O)N[C@H](CC[C@H](Cc2ccccc2)NC(=O)OCc2cncs2)Cc2ccccc2)cs1 [Cobicistat (GS-9350)] | 4.53 | 4.56 | 3.96 | 3.97 |
| CCCCCCCCCCCCCCCCOP(=O)([O-])OCC[N+](C)(C)C [MILTEX] | 4.51 | 4.55 | 4.45 | 4.47 |
| Cc1c(-c2ccc(O)cc2)n(Cc2ccc(OCCN3CCCCCC3)cc2)c2ccc(O)cc12 [Bazedoxifene HCl] | 4.87 | 4.55 | 4.25 | 4.25 |
| O=c1cc(O)cc(/C=C/c2ccc(O)c(O)c2)o1 [Hispidin] | 4.29 | 4.23 | 4.23 | 4.26 |
| CO[C@@]12[C@H](COC(N)=O)C3=C(C(=O)C(C)=C(N)C3=O)N1C[C@@H]1N[C@@H]12 [MUTAMYCIN] | > 5.01 | > 5.01 | > 5.01 | > 5.01 |
| CC(=O)O[C@H]1C[C@@]2(C)[C@@H](C[C@@H](O)[C@H]3[C@@]4(C)CC[C@@H](O)[C@@H](C)[C@@H]4CC[C@@]32C)/C1=C(\CCC=C(C)C)C(=O)O [Fusidic acid sodium] | > 5.01 | > 5.01 | > 5.01 | > 5.01 |
| O=C(Nc1ccc([N+](=O)[O-])cc1Cl)c1cc(Cl)ccc1O [NICLOSIDE] | > 5.01 | > 5.01 | > 5.01 | > 5.01 |
| Clc1ccc(C(c2ccc(Cl)cc2)[n+]2ccn(CC(OCc3ccc(Cl)cc3Cl)c3ccc(Cl)cc3Cl)c2)cc1 (configuration not stated) [Calmidazolium chloride] | > 5.01 | > 5.01 | > 5.01 | > 5.01 |
| CSc1ccc2c(c1)C(N1CCN(C)CC1)Cc1ccccc1S2 (configuration not stated) [METITEPINE MESYLATE] | 4.51 | 4.75 | 4.24 | 4.07 |
| O=c1c(O)c(-c2ccc(O)c(O)c2)oc2cc(O)cc(O)c12 [Quercetin dihydrate (Sophoretin)] | 4.73 | 4.95 | 4.23 | 4.27 |
| COC(=O)C1=C(C)NC(C)=C(C(=O)OCC(C)C)C1c1ccccc1[N+](=O)[O-] (configuration not stated) [SULAR] | 4.11 | 4.29 | < 3.82 | < 3.82 |
| COC(=O)c1c(C)c2c(c(C)c1O)OC(=O)c1c(C)c(Cl)c(O)c(Cl)c1O2 [LEOIDIN] | > 5.01 | > 5.01 | > 5.01 | > 5.01 |
| COCC(=O)O[C@]1(CCN(C)CCCc2nc3ccccc3[nH]2)CCc2cc(F)ccc2[C@@H]1C(C)C [Mibefradil dihydrochloride] | 4.79 | 4.95 | 4.39 | 4.28 |

| Structure (SMILES) | pIC50 ([1]; fluorescent label: DsRed) | pIC50 ([1]; fluorescent label: GFP) | pIC50 ([2]; fluorescent label: DsRed) | pIC50 ([2]; fluorescent label: GFP) |
| --- | --- | --- | --- | --- |
| N[C@@H](C(=O)N[C@@H]1C(=O)N2C(C(=O)O)=C(Cl)CS[C@H]12)c1ccccc1 [Cefaclor (Ceclor)] | > 6.30 | > 6.30 | 5.14 | 5.14 |
| CCCCCCCCCCCCCCCCC(C(=O)O)C(O)(CC(=O)O)C(=O)O (configuration not stated) [AGARIC ACID] | > 5.01 | > 5.01 | 4.89 | 4.69 |
| CO[C@H]1/C=C/O[C@@]2(C)Oc3c(C)c(O)c4c(O)c(c(/C=N/N5CCN(C6CCCC6)CC5)c(O)c4c3C2=O)NC(=O)/C(C)=C\C=C\[C@H](C)[C@H](O)[C@@H](C)[C@@H](O)[C@@H](C)[C@H](OC(C)=O)[C@@H]1C [Rifapentine] | > 6.30 | > 6.30 | > 6.30 | > 6.30 |
| CO[C@@H]1[C@@H](OC(N)=O)[C@@H](O)[C@H](Oc2ccc3c(O)c(NC(=O)c4ccc(O)c(CC=C(C)C)c4)c(=O)oc3c2C)OC1(C)C [ALBAMYCIN] | > 5.01 | > 5.01 | > 5.01 | > 5.01 |
| Cc1ccc(S(=O)(=O)C=CC#N)cc1 [Bay 11-7082] | > 5.01 | > 5.01 | > 5.01 | > 5.01 |
| Cc1cc2nc3c(=O)[nH]c(=O)nc-3n(C[C@H](O)[C@H](O)[C@H](O)CO)c2cc1C [FLAVAXIN] | < 3.82 | < 3.82 | < 3.82 | < 3.82 |
| C[C@H](Cc1ccc(O)c(O)c1)[C@@H](C)Cc1ccc(O)c(O)c1 | > 5.01 | > 5.01 | 4.48 | 4.24 |
| O=C(/C=C/c1ccccc1)c1ccc(O)cc1O [2',4'-DIHYDROXYCHALCONE] | 4.73 | 4.77 | 4.04 | 3.95 |
| CC(C)(Oc1ccc(C2CC2(Cl)Cl)cc1)C(=O)O (configuration not stated) [Ciprofibrate] | 4.67 | 4.51 | 4.03 | 3.97 |
| COC(=O)C1=C(C)NC(C)=C(C(=O)OCCCN2CCC(c3ccccc3)(c3ccccc3)CC2)[C@H]1c1cccc([N+](=O)[O-])c1 [S-(+)-Niguldipine hydrochloride] | > 5.01 | > 5.01 | > 5.01 | 4.94 |
| C=C[C@](C)(O)CC[C@@H]1[C@@]2(C)CCCC(C)(C)[C@@H]2CC[C@@]1(C)O [SCLAREOL] | > 5.01 | > 5.01 | 4.50 | 4.54 |
| COc1c(N2C[C@@H]3CCCN[C@@H]3C2)c(F)cc2c(=O)c(C(=O)O)cn(C3CC3)c12 [Moxifloxacin hydrochloride] | > 6.30 | > 6.30 | > 6.30 | > 6.30 |
| Cc1ccc(C(=O)Nc2ccc(CN3CCN(C)CC3)c(C(F)(F)F)c2)cc1C#Cc1cnc2cccnn12 | 5.08 | 5.34 | 4.66 | 4.56 |
| O=C(O[C@H]1CN2CCC1CC2)N1CCc2ccccc2[C@@H]1c1ccccc1 [VESICARE] | 4.50 | 4.70 | 4.32 | 4.17 |
| O=C(O[C@@H]1Cc2c(O)cc(O)cc2O[C@@H]1c1cc(O)c(=O)c2c(O)c(O)cc([C@H]3Oc4cc(O)cc(O)c4C[C@H]3OC(=O)c3cc(O)c(O)c(O)c3)c2c1)c1cc(O)c(O)c(O)c1 [THEAFLAVIN DIGALLATE] | 4.08 | 4.24 | < 3.82 | < 3.82 |
| C[N+](C)(C)CC(O)CC(=O)[O-] (racemic) [DL-Carnitine hydrochloride] | < 3.82 | 3.86 | < 3.82 | < 3.82 |
| Cc1onc(-c2ccccc2Cl)c1C(=O)N[C@@H]1C(=O)N2[C@@H]1SC(C)(C)[C@@H]2C(=O)O [Cloxacillin sodium] | > 5.01 | > 5.01 | > 5.01 | > 5.01 |
| CC[C@H]1OC(=O)[C@H](C)[C@@H](O[C@H]2C[C@@](C)(OC)[C@@H](O)[C@H](C)O2)[C@H](C)[C@@H](O[C@@H]2O[C@H](C)C[C@H](N(C)C)[C@H]2O)[C@](C)(O)C[C@@H](C)[C@@H]2N[C@@H](COCCOC)O[C@H]([C@H]2C)[C@]1(C)O [DYNABAC] | > 5.01 | > 5.01 | 4.67 | 4.67 |
